SMILES strings stand for the structures.

We go through one compound from patent US20240000724A1, “Compositions and Methods for Treatment or Prevention of Oral Mucositis” (PATHWAYS BIOSCIENCE, LLC, priority 2015, published 2024).

The nature of data set [1]: Aqueous solubility / visual dissolution in PBS with and without HPBCD. Particulars: for Aqueous solubility alone: water or aqueous solutions, no solubility enhancer. It is filed as physicochemical. The protocol:
(§1) In this example, approaches were used to increase the aqueous distribution of the otherwise relatively insoluble 1,3-diphenyl-1,3-propanedione (DBM) by adding 2-hydroxypropyl beta-cyclodextrin (HPBCD) at a molar ratio (DBM:HPBCD) of 1:3. […] To verify its presence in the aqueous solutions, the samples were tested for activity of PB201 using HepG2-ARE promoter/reporter cells, which are responsive to PB201 and other Nrf2-activators by promoting the expression of luciferase.

For data set [2], the system named is Nrf2 (HepG2-ARE promoter/reporter cells). Nature of the data set: HepG2-ARE promoter/reporter cells, Nrf2 activation (chemiluminescent signal, RLU). The format is cell-based, human. Particulars: for Nrf2 activation level: 4.2 ug/mL, unstimulated baseline 7182 RLU; for Nrf2 activation (chemiluminescent signal, RLU): HepG2-ARE cells. As for the experimental part: as §1
Furthermore, the Nrf2 activation by the 1,3-diphenyl-1,3-propanedione, with or without solubility enhancing agents such as HPBCD, is temporary, not permanent, and can be repeated; for example the Nrf2 activation by 4.2 ug/mL 1,3-diphenyl-1,3-propanedione decreases from its level at 17 hours (72,949 RLU) to 24 hours (47,121 RLU) after stimulation, and is nearly back to its baseline, unstimulated levels (7182 RLU) by 48 hours (11,659 RLU). Similarly, other types of agents can be utilized to increase aqueous levels of 1,3-diphenyl-1,3-propanedione including, but not limited to, surfactants, liposomes, amphiphiles, emulsifiers, and complexing agents to make solutions or suspensions.

In data set [3] the test system is oral mucositis. Nature of the data set: Oral mucositis in a mammal receiving radiation treatment or chemotherapy, topical oral administration. The format is in vivo. Particulars: topical within oral cavity daily, vs untreated or placebo. As for the experimental part:
A formulation of PB201 was administered topically within the oral cavity daily to a mammal receiving radiation treatment or chemotherapy that can cause oral mucositis as a side effect. PB201 administration decreased the frequency and/or severity of the oral mucositis as compared to untreated or placebo treated subjects.

The subject of data set [4] is radiation-induced oral mucositis (cheek pouch ulceration). Nature of the data set: Radiation-induced oral mucositis in hamster cheek pouch. Particulars: 40 Gy day 0; topical cheek pouch 1 to 10 μg PB201 3×/day days 0 to 28; scored days 6 to 28. The format is in vivo, Syrian Golden Hamsters. The protocol:
In this example, a single dose of radiation (40 Gy) was given on day 0 to the isolated cheek pouch and PB201 treatment was given by topical cheek pouch administration of 1 to 10 μg PB201 given three times daily from days 0 to 28 as 0.2 mL of 5 μg/mL given 3×/day or 0.2 mL of 50 μg/mL given 3×/day, and oral mucositis was determined as cheek pouch ulceration, scored every 2 days from days 6 to 28. Mucositis was scored visually by comparison to a validated photographic scale, ranging from 0 (normal) to 5 (severe ulceration). In descriptive terms, this scale is defined as follows.
A score of 1-2 is considered to represent a mild stage of the disease, whereas a score of 3-5 is considered to indicate moderate to severe mucositis.

`O=C(CC(=O)c1ccccc1)c1ccccc1` [PB201, 1,3-diphenyl-1,3-propanedione]: in data set [1] (5 mg in 1 mL PBS with 93 mg HPBCD (3:1 mole ratio)), the Visual dissolution result is on record as “visually dissolved”. Also, in data set [1] (HPBCD added, DBM:HPBCD 1:3), the “Change of solubility in aqueous solution by 2-hydroxypropyl beta-cyclodextrin” value is reported as “greatly increased”. For the same compound, the figures for the Aqueous solubility alone result in data set [1] and in data set [1] (listed as 1,3-diphenyl-1,3-propanedione) were “nearly insoluble” and “low aqueous solubility”, respectively. Also, the figures for the Nrf2 activation level in data set [2] (17 hours after stimulation) and in data set [2] (48 hours after stimulation) were 72,949 RLU and 11,659 RLU, respectively. Besides, the “Nrf2 activation (chemiluminescent signal, RLU)” value in data set [2] (PB201 in HPBCD/PBS) is “activated”; in data set [2] (PB201 in PBS alone), “not by PB201 in PBS alone”. The “Frequency and/or severity of oral mucositis” value in data set [3] is recorded as “decreased”. The “Protection against oral mucositis (cheek pouch ulceration score 0-5)” value in data set [4] was “protected against the oral mucositis”.
